Results from patent publication US5373015A, “Fused pyridine derivatives useful as angiotensin II antagonists” (Imperial Chemical Industries PLC, priority 1991, dated 1994).

Target: T1, AII receptors (Cavia porcellus, UniProt Q9WV26)
T1 construct: from tissue; host or cells: guinea pig adrenal gland, cell surface membrane fraction
T1 sequence (Q9WV26 1-359): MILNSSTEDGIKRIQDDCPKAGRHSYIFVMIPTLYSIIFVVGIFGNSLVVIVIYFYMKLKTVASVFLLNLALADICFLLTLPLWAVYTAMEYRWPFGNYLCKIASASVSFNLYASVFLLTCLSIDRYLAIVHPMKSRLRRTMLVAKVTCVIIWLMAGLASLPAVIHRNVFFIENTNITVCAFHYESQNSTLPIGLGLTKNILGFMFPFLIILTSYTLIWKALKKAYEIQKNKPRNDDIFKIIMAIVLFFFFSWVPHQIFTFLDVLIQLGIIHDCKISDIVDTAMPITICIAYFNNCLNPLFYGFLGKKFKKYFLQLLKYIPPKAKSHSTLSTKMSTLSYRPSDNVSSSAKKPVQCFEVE
Test: Test A: displacement of radiolabelled AII binding from guinea pig adrenal gland membrane fraction
Settings: guinea pig adrenal gland membranes; read-out: IC50 (concentration for 50% displacement of radiolabelled AII binding)
Procedure: This in vitro procedure involves the incubation of the test compound initially at a concentration of 100 micromolar (or less) in a buffered mixture containing fixed concentrations of radiolabelled AII and a cell surface membrane fraction prepared from a suitable angiotensin target tissue. In this test, the source of cell surface membranes is the guinea pig adrenal gland which is well known to respond to AII. Interaction of the radiolabelled AII with its receptors (assessed as radiolabel bound to the particulate membrane fraction following removal of unbound radiolabel by a rapid filtration procedure such as is standard in such studies) is antagonized by compounds which also bind to the membrane receptor sites and the degree of antagonism (observed in the test as displacement of membrane-bound radioactivity) is determined readily by comparing the receptor-bound radioactivity in the presence of the test compound at the specified test concentration with a control value determined in the absence of the test compound. Using this procedure compounds showing at least 50% displacement of radiolabelled AII binding at a concentration of 10^4 M are retested at lower concentrations to determine their potency. […]

IC50: 270 nM
SMILES: CCc1cc2c(ccc(=O)n2Cc2ccc(OC(C(=O)O)c3ccccc3)cc2)c(CC)n1 (stereo not shown) [Example 2]
